Assay results taken from publication PMC9403976, “Elucidating the path to Plasmodium prolyl-tRNA synthetase inhibitors that overcome halofuginone resistance” (Nature Communications, 2022).
“And” between values parts separate entries of the source, which are not always exact repeats. Equal entries are not always repeated. Where two headings read alike, the source gives them in different places.

Tests used:
HsProRS = HsProRS (Homo sapiens, UniProt P07814); assay: TR-FRET ligand displacement assay with tracer MAT379 (CoraFluor-1-Halo and anti-His6 antibody formats); format: binding; parameters: made in house; host or cells: E. coli SoluBL-21; conditions: for TR-FRET dose-response, normalized signal (SI Fig 11): individual replicates; for HsProRS % signal at 10 μM: no added proline/ATP (-)
P. falciparum Dd2-2D4 = assay: P. falciparum asexual blood stage (ABS) growth assay, SYBR Green, 72 h, wild-type parasites; format: cell-based, Plasmodium falciparum
PfcProRS = biological target: T1, PfcProRS (Plasmodium falciparum, UniProt Q8I5R7); format: binding; conditions: for dose-response signal (normalized), SI Fig 8: single replicates; for Normalized response, dose-response replicates (SI Fig 14): replicates 1-3
T1 construct: made in house; host or cells: E. coli SoluBL-21
T1 sequence (Q8I5R7 249-746): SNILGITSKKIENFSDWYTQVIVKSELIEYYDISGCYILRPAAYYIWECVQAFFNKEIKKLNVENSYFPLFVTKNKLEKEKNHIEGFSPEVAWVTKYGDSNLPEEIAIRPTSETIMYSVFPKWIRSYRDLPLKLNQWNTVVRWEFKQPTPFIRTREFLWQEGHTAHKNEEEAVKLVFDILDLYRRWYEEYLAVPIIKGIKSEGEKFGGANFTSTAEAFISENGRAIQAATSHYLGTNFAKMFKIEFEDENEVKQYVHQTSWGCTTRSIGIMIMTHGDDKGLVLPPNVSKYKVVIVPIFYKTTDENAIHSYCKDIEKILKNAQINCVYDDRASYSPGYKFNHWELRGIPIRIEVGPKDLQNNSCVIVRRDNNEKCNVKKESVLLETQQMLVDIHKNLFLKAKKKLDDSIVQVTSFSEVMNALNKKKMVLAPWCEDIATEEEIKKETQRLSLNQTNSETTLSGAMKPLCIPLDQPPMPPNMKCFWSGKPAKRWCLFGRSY

HsProRS, sequence (P07814 996-1512): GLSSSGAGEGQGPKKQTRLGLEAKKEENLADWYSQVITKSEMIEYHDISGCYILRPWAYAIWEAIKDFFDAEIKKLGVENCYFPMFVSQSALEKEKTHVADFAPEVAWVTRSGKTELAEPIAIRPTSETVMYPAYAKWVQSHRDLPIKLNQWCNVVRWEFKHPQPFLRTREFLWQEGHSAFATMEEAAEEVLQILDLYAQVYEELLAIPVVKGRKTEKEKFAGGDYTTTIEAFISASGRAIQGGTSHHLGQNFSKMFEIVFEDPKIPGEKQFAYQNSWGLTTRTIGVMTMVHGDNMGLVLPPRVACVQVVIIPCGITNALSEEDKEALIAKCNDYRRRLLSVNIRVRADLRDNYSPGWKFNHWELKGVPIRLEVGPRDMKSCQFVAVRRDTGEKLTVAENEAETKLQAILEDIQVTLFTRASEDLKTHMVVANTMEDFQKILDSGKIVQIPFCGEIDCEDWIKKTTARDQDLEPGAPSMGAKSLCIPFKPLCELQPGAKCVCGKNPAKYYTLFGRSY

C[C@@H]1CCC[C@H](C)N1C(=O)Nc1nccnc1C(=O)NC1Cc2ccccc2C1 [compound 19]
IC50 (HsProRS): > 10 µM
Kd (HsProRS; HsProRS (KD [nM]) + 100 μM proline mean, + 100 μM proline): 1320 nM
normalized TR-FRET ligand displacement signal, dose-response replicates (SI Fig 6) (HsProRS; Log[inhibitor] (M) -5.000): 6.53E-01 and 6.39E-01 and 5.91E-01
TR-FRET dose-response, normalized signal (SI Fig 11) (HsProRS; Log[inhibitor] (M) -5.000): 8.15E-01 and 7.82E-01 and 8.24E-01
normalized TR-FRET ligand displacement signal, dose-response replicates (SI Fig 6) (HsProRS; Log[inhibitor] (M) -5.301): 8.82E-01 and 7.60E-01 and 7.73E-01
TR-FRET dose-response, normalized signal (SI Fig 11) (HsProRS; Log[inhibitor] (M) -5.301): 9.03E-01 and 8.79E-01 and 9.19E-01
normalized TR-FRET ligand displacement signal, dose-response replicates (SI Fig 6) (HsProRS; Log[inhibitor] (M) -5.601): 8.80E-01 (2×) and 8.74E-01
TR-FRET dose-response, normalized signal (SI Fig 11) (HsProRS; Log[inhibitor] (M) -5.602): 9.30E-01 and 1.01E+00 and 9.11E-01
normalized TR-FRET ligand displacement signal, dose-response replicates (SI Fig 6) (HsProRS; Log[inhibitor] (M) -5.904): 9.78E-01 and 8.58E-01 and 8.56E-01
TR-FRET dose-response, normalized signal (SI Fig 11) (HsProRS; Log[inhibitor] (M) -5.904): 9.97E-01 and 1.07E+00 and 9.73E-01
TR-FRET dose-response, normalized signal (SI Fig 11) (HsProRS; Log[inhibitor] (M) -6.205): 1.07E+00 and 9.89E-01 and 1.03E+00
normalized TR-FRET ligand displacement signal, dose-response replicates (SI Fig 6) (HsProRS; Log[inhibitor] (M) -6.208): 1.01E+00 and 9.70E-01 and 9.45E-01
TR-FRET dose-response, normalized signal (SI Fig 11) (HsProRS; Log[inhibitor] (M) -6.506): 1.02E+00 and 1.05E+00 and 9.88E-01
normalized TR-FRET ligand displacement signal, dose-response replicates (SI Fig 6) (HsProRS; Log[inhibitor] (M) -6.509): 9.25E-01 and 1.05E+00 and 8.66E-01
normalized TR-FRET ligand displacement signal, dose-response replicates (SI Fig 6) (HsProRS; Log[inhibitor] (M) -6.796): 1.10E+00 and 9.97E-01 and 1.01E+00
TR-FRET dose-response, normalized signal (SI Fig 11) (HsProRS; Log[inhibitor] (M) -6.796): 9.68E-01 and 1.04E+00 and 9.56E-01
TR-FRET dose-response, normalized signal (SI Fig 11) (HsProRS; Log[inhibitor] (M) -7.097): 1.08E+00 (2×) and 9.97E-01
normalized TR-FRET ligand displacement signal, dose-response replicates (SI Fig 6) (HsProRS; Log[inhibitor] (M) -7.108): 1.04E+00 (2×) and 1.01E+00
TR-FRET dose-response, normalized signal (SI Fig 11) (HsProRS; Log[inhibitor] (M) -7.407): 1.09E+00 and 9.94E-01 and 1.12E+00
normalized TR-FRET ligand displacement signal, dose-response replicates (SI Fig 6) (HsProRS; Log[inhibitor] (M) -7.409): 9.88E-01 and 9.12E-01 and 1.00E+00
TR-FRET dose-response, normalized signal (SI Fig 11) (HsProRS; Log[inhibitor] (M) -7.708): 1.07E+00 and 1.00E+00 and 1.08E+00
normalized TR-FRET ligand displacement signal, dose-response replicates (SI Fig 6) (HsProRS; Log[inhibitor] (M) -7.710): 9.99E-01 and 1.02E+00 and 9.53E-01
normalized TR-FRET ligand displacement signal, dose-response replicates (SI Fig 6) (HsProRS; Log[inhibitor] (M) -8.000): 9.74E-01 and 8.92E-01 and 8.64E-01
TR-FRET dose-response, normalized signal (SI Fig 11) (HsProRS; Log[inhibitor] (M) -8.018): 1.06E+00 and 1.03E+00 and 1.01E+00
normalized TR-FRET ligand displacement signal, dose-response replicates (SI Fig 6) (HsProRS; Log[inhibitor] (M) -8.301): 9.68E-01 and 9.13E-01 and 9.38E-01
TR-FRET dose-response, normalized signal (SI Fig 11) (HsProRS; Log[inhibitor] (M) -8.319): 9.44E-01 and 9.92E-01 and 9.43E-01
normalized TR-FRET ligand displacement signal, dose-response replicates (SI Fig 6) (HsProRS; Log[inhibitor] (M) -8.602): 9.46E-01 and 9.29E-01 and 1.00E+00
TR-FRET dose-response, normalized signal (SI Fig 11) (HsProRS; Log[inhibitor] (M) -8.620): 1.03E+00 and 1.01E+00 and 7.25E-01
TR-FRET dose-response, normalized signal (SI Fig 11) (HsProRS; Log[inhibitor] (M) -8.921): 1.02E+00 and 9.26E-01 and 9.67E-01
normalized TR-FRET ligand displacement signal, dose-response replicates (SI Fig 6) (HsProRS; Log[inhibitor] (M) -9.000): 9.21E-01 and 9.72E-01 and 9.38E-01
TR-FRET dose-response, normalized signal (SI Fig 11) (HsProRS; Log[inhibitor] (M) -9.097): 9.79E-01 and 1.10E+00 and 1.04E+00
normalized TR-FRET ligand displacement signal, dose-response replicates (SI Fig 6) (HsProRS; Log[inhibitor] (M) -9.301): 8.73E-01 and 8.54E-01 and 9.42E-01
HsProRS % signal at 10 μM (HsProRS; 10 μM): 80.7%
% signal at 10 μM, wildtype (Dd2-2D4) (P. falciparum Dd2-2D4; wildtype (Dd2-2D4), 10 μM): 67.3%
dose-response signal (normalized), SI Fig 8 (PfcProRS; Log[inhibitor] (M) -5.000): 3.96E-01 and 1.71E-01 and 2.62E-01
dose-response signal (normalized), SI Fig 8 (PfcProRS; Log[inhibitor] (M) -5.301): 5.52E-01 and 5.02E-01 and 5.09E-01
dose-response signal (normalized), SI Fig 8 (PfcProRS; Log[inhibitor] (M) -5.601): 8.00E-01 and 7.91E-01 and 8.42E-01
dose-response signal (normalized), SI Fig 8 (PfcProRS; Log[inhibitor] (M) -5.904): 7.54E-01 and 9.47E-01 and 8.47E-01
dose-response signal (normalized), SI Fig 8 (PfcProRS; Log[inhibitor] (M) -6.208): 1.02E+00 and 9.13E-01 and 1.08E+00
dose-response signal (normalized), SI Fig 8 (PfcProRS; Log[inhibitor] (M) -6.509): 9.59E-01 and 1.03E+00 and 9.76E-01
dose-response signal (normalized), SI Fig 8 (PfcProRS; Log[inhibitor] (M) -6.796): 1.09E+00 and 1.00E+00 and 1.08E+00
dose-response signal (normalized), SI Fig 8 (PfcProRS; Log[inhibitor] (M) -7.108): 9.66E-01 and 9.00E-01 and 9.04E-01
dose-response signal (normalized), SI Fig 8 (PfcProRS; Log[inhibitor] (M) -7.409): 9.53E-01 and 1.01E+00 and 9.35E-01
dose-response signal (normalized), SI Fig 8 (PfcProRS; Log[inhibitor] (M) -7.710): 1.09E+00 and 9.53E-01 and 1.01E+00
dose-response signal (normalized), SI Fig 8 (PfcProRS; Log[inhibitor] (M) -8.000): 1.12E+00 and 1.07E+00 and 9.69E-01
dose-response signal (normalized), SI Fig 8 (PfcProRS; Log[inhibitor] (M) -8.301): 1.02E+00 (2×) and 1.14E+00
dose-response signal (normalized), SI Fig 8 (PfcProRS; Log[inhibitor] (M) -8.602): 1.07E+00 and 8.94E-01 and 1.04E+00
dose-response signal (normalized), SI Fig 8 (PfcProRS; Log[inhibitor] (M) -9.000): 1.15E+00 and 8.96E-01 and 9.87E-01
dose-response signal (normalized), SI Fig 8 (PfcProRS; Log[inhibitor] (M) -9.301): 8.48E-01 and 9.64E-01 and 1.02E+00
PfcProRS -- best Kd (PfcProRS; SI Fig 16a, values on -log scale): 5.928

CNc1nccnc1C(=O)NC1Cc2ccccc2C1 [compound 46]
IC50 (HsProRS): > 10 µM
HsProRS % signal at 10 μM, + 100 μM proline (HsProRS; + 100 μM proline, 10 μM): 91.7%
HsProRS % signal at 10 μM (HsProRS; 10 μM): 97.1%
IC50 (HsProRS; read-out: HsProRS IC50 + 100 μM proline, + 100 μM proline): > 10 µM
EC50 (P. falciparum Dd2-2D4; Plasmodium falciparum, DD2, SI Fig 16b, values on -log scale, read-out: ABS - Dd2-2D4 (converted)): 8.11 µM
Normalized response, dose-response replicates (SI Fig 14) (PfcProRS; Log[inhibitor] (M) -5.000): 8.16E-01 and 6.16E-01 and 6.52E-01
Normalized response, dose-response replicates (SI Fig 14) (PfcProRS; Log[inhibitor] (M) -5.301): 8.98E-01 and 7.41E-01 and 8.21E-01
Normalized response, dose-response replicates (SI Fig 14) (PfcProRS; Log[inhibitor] (M) -5.601): 9.35E-01 and 8.99E-01 and 9.60E-01
Normalized response, dose-response replicates (SI Fig 14) (PfcProRS; Log[inhibitor] (M) -5.904): 1.14E+00 and 9.86E-01 and 9.79E-01
Normalized response, dose-response replicates (SI Fig 14) (PfcProRS; Log[inhibitor] (M) -6.208): 1.04E+00 and 1.02E+00 and 8.92E-01
Normalized response, dose-response replicates (SI Fig 14) (PfcProRS; Log[inhibitor] (M) -6.509): 1.02E+00 (2×) and 9.27E-01
Normalized response, dose-response replicates (SI Fig 14) (PfcProRS; Log[inhibitor] (M) -6.796): 1.13E+00 and 1.15E+00 and 1.04E+00
Normalized response, dose-response replicates (SI Fig 14) (PfcProRS; Log[inhibitor] (M) -7.108): 9.45E-01 and 1.04E+00 and 8.83E-01
Normalized response, dose-response replicates (SI Fig 14) (PfcProRS; Log[inhibitor] (M) -7.409): 1.08E+00 and 9.92E-01 and 1.03E+00
Normalized response, dose-response replicates (SI Fig 14) (PfcProRS; Log[inhibitor] (M) -7.710): 9.83E-01 and 1.09E+00 and 9.75E-01
Normalized response, dose-response replicates (SI Fig 14) (PfcProRS; Log[inhibitor] (M) -8.000): 9.64E-01 and 1.04E+00 and 9.43E-01
Normalized response, dose-response replicates (SI Fig 14) (PfcProRS; Log[inhibitor] (M) -8.301): 1.03E+00 (2×) and 1.01E+00
Normalized response, dose-response replicates (SI Fig 14) (PfcProRS; Log[inhibitor] (M) -8.602): 1.06E+00 and 9.77E-01 and 1.03E+00
Normalized response, dose-response replicates (SI Fig 14) (PfcProRS; Log[inhibitor] (M) -9.000): 9.75E-01 and 9.25E-01 and 9.98E-01
Normalized response, dose-response replicates (SI Fig 14) (PfcProRS; Log[inhibitor] (M) -9.301): 9.09E-01 and 1.02E+00 and 8.23E-01
